Data set [1] deals with Ba/F3-CAT-EGFR (wild-type EGFR) cells. The data set can be described thus: Test 4: Proliferation Test of BalF3-CAT-EGFR cells (Cell Titer-Glo). It counts as cell-based. As to conditions: 72 hours. The source says: BalF3-CAT-EGFR cell viability detection is based on the detection technology developed by CellTiter-Glo®. BalF3 cells are transformed by overexpressing the intracellular kinase region of wild-type EGFR to construct a CAT-EGFR tool cell strain. This cell strain lives depending on the kinase activity of EGFR, if the wild-type EGFR is inhibited by a small molecule compound, the cell strain will die. Therefore, the specificity and activity of EGFR small molecules on wild-type EGFR may be evaluated by observing the effect of EGFR small molecules on cell viability.
Ba/F3-CAT-EGFR (wild-type EGFR) cells are cultured in RPMI1640 medium containing 10% fetal bovine serum and 2 mM glutamine. Cells are grown in a humidified incubator with 5% CO2 at 37°C.
(§1) The number of viable cells in the culture is determined according to the protocol described in Cell Titer-Glo Luminescent cell Viability Assay (Promega catalog number: # G7570) of Promega company. 100 µl of cells (3000 cells/well) are cultured in growth medium in a Corning 96-well plate with black transparent bottom, culturing in a humidified incubator with 5% CO2 at 37°C overnight. The compound serially diluted in 100% DMSO is added to the cells by pipette, culturing the cells for another 72 hours. 100 µl of the mixed Cell Titer-Glo reagent is added to the cells in the 96-well culture plate to lyse the cells, mixing gently. Subsequently, the […] is detected on the Envision microplate detector to obtain data of the compound. Finally, the data is input into a suitable software package (such as Prism) for curve fitting analysis.
On the technique in general: In ATP-based viability assays light output follows the ATP content of the culture.

For data set [2], the system named is BalF3-DTM-EGFR (mutant EGFR) cells. The data set can be described thus: Test 5: Proliferation Test of Ba/F3-DTM-EGFR cells (Cell Titer-Glo). As to conditions: for Inhibitory selectivity of the compound, Ratio of IC50 value of Test 4 to IC50 value of Test 5: Ba/F3-CAT-EGFR vs Ba/F3-DTM-EGFR cells; for pIC50: Ba/F3-DTM-EGFR cells (T790M mutation and Exon19-deficient EGFR), 72 hours. It is filed as cell-based. As to the method:
Ba/F3-DTM-EGFR cell viability detection is based on the detection technology developed by CellTiter-Glo®. […] This cell strain lives depending on the kinase activity of EGFR, if the mutant EGFR is inhibited by a small molecule compound, the cell strain will die. Therefore, the specificity and activity of EGFR small molecules on mutant EGFR may be evaluated by observing the effect of EGFR small molecules on cell viability.
BalF3-DTM-EGFR (mutant EGFR) cells are cultured in RPMI1640 medium containing 10% fetal bovine serum and 2 mM glutamine. Cells are grown in a humidified incubator with 5% CO2 at 37°C.
as §1

Data set [3] concerns NCI-H1975 (L858R/T790M double mutant EGFR). The experiment in a line: Test 3: Proliferation Test of L858R/T790M EGFR (double mutant) cells (Cell Titer-Glo). It is filed as cell-based, human. The following applies: for pIC50: Homo sapiens, NCI-H1975 cells, 72 hours; for Ratio of IC50 value of Test 2 to that of Test 3: selectivity: wild-type EGFR cells vs L858R/T790M EGFR (double mutant) cells. As to the method:
(§2) NCI-H1975 cells are cultured in RPMI1640 medium containing 10% fetal bovine serum and 2 mM glutamine. Cells are grown in a humidified incubator with 5% CO2 at 37°C.
as §1, with “company. 90” for “company. 100”, “cells (8000” for “cells (3000”

Data set [4] has as its target T1, L858R/T790M EGFR (double mutant) (Homo sapiens, UniProt P00533, L858R/T790M).
T1 construct: The detection of phosphorylated p-EGFR of endogenous cells in cell lysate; host or cells: NCI-H1975
The experiment in a line: Test 1: Phosphorylation Test of L858R/T790M EGFR (double mutant) Cells (phospho-EGFR ELISA). The following applies: NCI-H1975 cells, p-EGFR in cell lysate, compound incubation 2 hours. It is filed as cell-based. On the procedure:
as §2
The detection of phosphorylated p-EGFR of endogenous cells in cell lysate is performed according to the protocol described in the DuoSet IC Human Phospho-EGFR ELISA (R&D Systems catalog number: # DYC1095) of R&D Systems Company. 90 µl of cells (8000 cells/well) are cultured in growth medium in a Corning 96-well plate with black transparent bottom, after culturing in a humidified incubator with 5% CO2 at 37°C overnight, the cell culture medium is replaced with RPMI1640 medium containing 1% fetal bovine serum and 2 mM glutamine to culture continuously. The compound serially diluted in 100% DMSO is added to the cells by pipette, and after gently mixing the medium, the cells are incubated for another 2 hours. 100 µl of 1X lysis buffer is added to each well. Greiner high-binding 96-well plates are coated with capture antibody, and then blocked with 3% BSA. After removing the blocking solution, 100 µl of lysate is transferred to a Greiner high-binding 96-well plate, then incubating for 2 hours. After gently mixing and washing the culture plate with PBS, 100 µl of detection antibody is added, then incubating for 2 hours. […] 100 µl of stop solution is added to the culture plate, and the absorbance of each well at 450 nm wavelength is measured. Finally, the data is input into a suitable software package (such as Prism) for curve fitting analysis.
Background: An ELISA detects its analyte on a solid surface through an enzyme-linked reagent.

In a further data set the test system is A431 (wild-type EGFR). The data set can be described thus: Test 2: Proliferation Test of Wild-type EGFR Cells (Cell Titer-Glo). It counts as cell-based. As to conditions: Homo sapiens, read-out: IC50 value, Test 2. As to the method: The human […] cell line A431 (wild-type EGFR) is obtained from the American Type Culture Collection. […] cells are cultured in RPMI1640 medium containing 10% fetal bovine serum and 2 mM glutamine. Cells are grown in a humidified incubator with 5% CO2 at 37°C.
as §1, with “company. 90” for “company. 100”, “cells (8000” for “cells (3000”

Data set [5] in a line: Test 6: Test of Plasma Protein Binding Rate (equilibrium dialysis), human plasma. It counts as in vitro ADME. As to conditions: equilibrium dialysis at 37°C for 4 hours, read-out: % Unbound of human plasma sample in Test 6. On the procedure: (§3) The test of plasma protein binding rate is performed by using the 96-well equilibrium dialysis device from HTDialysis Company. The human plasma samples or mouse plasma samples with a concentration of 2 µM for the test and control compounds are performed equilibrium dialysis at 37°C for 4 hours so as to conduct the protein binding study. 150 µL of plasma sample with the test compound is added to the administration end of each dialysis well, and 150 µL of blank dialysis buffer is added to the receiving end corresponding to the dialysis well. The dialysis plate is then placed in a humidified incubator with 5% CO2 to incubate at 37°C for 4 hours. After dialysis, 50 µL of the dialyzed buffer sample and the dialyzed plasma sample are transferred to a new 96-well plate (sample receiving plate). The corresponding volume of corresponding blank plasma or buffer is added to the sample. All samples are analyzed by LC/MS/MS after protein precipitation. The concentration of the sample is expressed as the ratio of the peak area of the compound to the internal standard substance (semi-quantitative). Finally, the % Unbound, % Bound, and % Recovery of the compound are calculated according to the formula.

Data set [6] can be described thus: Test 6: Test of Plasma Protein Binding Rate (equilibrium dialysis), mouse plasma. It is filed as in vitro ADME. As to conditions: equilibrium dialysis at 37°C for 4 hours, read-out: % Unbound of mouse plasma sample in Test 6. As to the method:
as §3
(In general: In equilibrium dialysis only unbound substance equilibrates across the membrane.)

[7] abbreviates: A-431, wild-type EGFR cells, 72 hours.

Molecules are shown by their SMILES. pIC50: −log10 of the molar value. Like-named read-outs stand apart in the source and are kept apart here. Bounds are passed on as bounds.

T1 sequence (P00533 25-1210 T790M/L858R): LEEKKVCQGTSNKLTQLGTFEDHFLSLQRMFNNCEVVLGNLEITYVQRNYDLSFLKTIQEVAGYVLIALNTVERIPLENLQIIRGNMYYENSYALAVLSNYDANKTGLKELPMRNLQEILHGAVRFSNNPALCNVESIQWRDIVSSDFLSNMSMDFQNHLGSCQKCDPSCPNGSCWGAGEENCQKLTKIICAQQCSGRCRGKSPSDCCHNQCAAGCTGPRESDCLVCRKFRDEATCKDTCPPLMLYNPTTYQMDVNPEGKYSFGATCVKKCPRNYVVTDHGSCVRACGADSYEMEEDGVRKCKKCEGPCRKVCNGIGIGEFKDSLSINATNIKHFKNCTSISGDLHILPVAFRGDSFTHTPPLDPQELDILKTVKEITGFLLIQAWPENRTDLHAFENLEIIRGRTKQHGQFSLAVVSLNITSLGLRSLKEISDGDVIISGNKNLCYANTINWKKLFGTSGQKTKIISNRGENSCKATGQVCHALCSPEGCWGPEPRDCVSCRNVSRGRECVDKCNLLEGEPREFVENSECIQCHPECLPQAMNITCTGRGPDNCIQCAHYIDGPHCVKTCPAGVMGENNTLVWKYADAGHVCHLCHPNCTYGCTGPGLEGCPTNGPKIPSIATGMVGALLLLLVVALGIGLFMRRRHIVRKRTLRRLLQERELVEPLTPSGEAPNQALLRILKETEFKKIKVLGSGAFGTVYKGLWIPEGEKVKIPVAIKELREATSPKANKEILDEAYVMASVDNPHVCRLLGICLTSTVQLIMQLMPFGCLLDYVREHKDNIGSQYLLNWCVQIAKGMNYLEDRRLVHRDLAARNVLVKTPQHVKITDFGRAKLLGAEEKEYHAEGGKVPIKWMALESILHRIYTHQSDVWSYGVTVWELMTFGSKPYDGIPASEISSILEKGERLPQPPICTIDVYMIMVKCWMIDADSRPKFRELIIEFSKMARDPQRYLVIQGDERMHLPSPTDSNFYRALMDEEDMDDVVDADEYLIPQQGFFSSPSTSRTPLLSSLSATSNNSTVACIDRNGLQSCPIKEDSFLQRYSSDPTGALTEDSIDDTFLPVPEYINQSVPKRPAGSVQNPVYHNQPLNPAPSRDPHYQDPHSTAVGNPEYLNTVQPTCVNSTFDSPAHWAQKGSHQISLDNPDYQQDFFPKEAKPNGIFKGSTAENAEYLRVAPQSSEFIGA

For `C=CC(=O)Nc1cc(Nc2ncnc(-n3cc(C)c4cnccc43)n2)c(OC)cc1N(C)CCN(C)C` [Compound 18, N-(2-((2-(dimethylamino)ethyl)(methyl)amino)-4-methoxy-5-((4-(3-methyl-1H-pyrrolo[3,2-c)pyridin-1-yl)-1,3,5-triazin-2-yl)amino)phenyl)acrylamide], in data set [1], the pIC50 is less than 5.00. For the same compound, in data set [2], the “Inhibitory selectivity of the compound, Ratio of IC50 value of Test 4 to IC50 value of Test 5” value is on record as more than 1923.08 and the pIC50 was 8.28.
Consider `C=CC(=O)Nc1cc(Nc2ncnc(-c3cnc4c(C)cccn34)n2)c(OC)cc1N(C)CCN(C)C` [Compound 26, N-(2-((2-(dimethylamino)ethyl)(methyl)amino)-4-methoxy-5-((4-(8-methylimidazolo[1,2-a]pyridin-3-yl)-1,3,5-triazin-2-yl)amino)phenyl)acrylamide], for which the pIC50 in data set [1] is less than 5.00; in data set [3], 8.40; in data set [2], 8.43; in data set [4] it was 7.92; in the data set on A431 (wild-type EGFR) (setting [7]), 6.14. Moreover, the “Ratio of IC50 value of Test 2 to that of Test 3” value (shortened to “Ratio of IC50 value … of Test 3”) in data set [3] worked out at 179.5. Besides, the “Inhibitory selectivity of the compound, Ratio of IC50 value of Test 4 to IC50 value of Test 5” value in data set [2] was more than 2702.70.
Take `C=CC(=O)Nc1cc(Nc2ncnc(N3CC(C)(C)c4ncccc43)n2)c(OC)cc1N(C)CCN(C)C` [Compound 11, N-(5-((4-(3,3-dimethyl-2,3-dihydro-1H-pyrrolo[3,2-b]pyridin-1-yl)-1,3,5-triazin-2-yl)amino)-2-((2-(dimethylamino)ethyl)(methyl)amino)-4-methoxyphenyl)acrylamide]: the pIC50 is less than 5.00 in data set [1], 8.47 in data set [2] and 7.95 in data set [4]. In addition, the results for the fraction unbound at 4 h, 2 µM in data set [5] and in data set [6] were 0.107 and 0.077, respectively. The “Inhibitory selectivity of the compound, Ratio of IC50 value of Test 4 to IC50 value of Test 5” value in data set [2] is listed as more than 2941.18.
Regarding `C=CC(=O)Nc1cc(Nc2ncnc(-n3ccc4ncccc43)n2)c(OC)cc1N(C)CCN(C)C` [Compound 6, N-(5-((4-(1H-pyrrolo[3,2-b]pyridin-1-yl)-1,3,5-triazin-2-yl)amino)-2-((2-(dimethylamino)ethyl)(methyl)amino)-4-methoxyphenyl)acrylamide], the figures for the pIC50 (in data set [3]; in data set [4]; with A431 (wild-type EGFR) (setting [7])) were 8.52, 7.82 and 6.24, respectively. Besides, in data set [3], the “Ratio of IC50 value … of Test 3” value amounted to 193.
Consider `C=CC(=O)Nc1cc(Nc2ncnc(-c3cnc4c(C(F)(F)F)cccn34)n2)c(OC)cc1N(C)CCN(C)C` [Compound 28, N-(2-((2-(dimethylamino)ethyl)(methyl)amino)-4-methoxy-5-((4-(8-(trifluoromethyl)imidazolo[1,2-a]pyridin-3-yl)-1,3,5-triazin-2-yl)amino)phenyl)acrylamide], for which the pIC50 in data set [1] was less than 5.00; in data set [3], 8.40; in data set [2], 8.40; in data set [4] it was 7.94; in the data set on A431 (wild-type EGFR) (setting [7]) it was 6.12. The “Ratio of IC50 value … of Test 3” value in data set [3] came out at 189.5. In addition, the “Inhibitory selectivity of the compound, Ratio of IC50 value of Test 4 to IC50 value of Test 5” value in data set [2] was more than 2500.00.
In the case of `C=CC(=O)Nc1cc(Nc2ncnc(-n3nc(F)c4ccccc43)n2)c(OC)cc1N(C)CCN(C)C` [Compound 29, N-(2-((2-(dimethylamino)ethyl)(methyl)amino)-5-((4-(3-fluoro-1H-indazol-1-yl)-1,3,5-triazin-2-yl)amino)-4-methoxyphenyl)acrylamide], the negative logarithm of the IC50 (pIC50) is less than 5.00 in data set [1]; 8.40 in data set [3]; 8.35 in data set [2]; 7.97 in data set [4]; 6.03 with A431 (wild-type EGFR) (setting [7]). For the same compound, the “Ratio of IC50 value … of Test 3” value in data set [3] was 235.3. Further, in data set [2], the “Inhibitory selectivity of the compound, Ratio of IC50 value of Test 4 to IC50 value of Test 5” value was more than 2222.22.
With `C=CC(=O)Nc1cc(Nc2ncnc(-c3cnc4c(F)cccn34)n2)c(OC)cc1N(C)CCN(C)C` [Compound 27, N-(2-((2-(dimethylamino)ethyl)(methyl)amino)-5-((4-(8-fluoroimidazolo[1,2-a]pyridin-3-yl)-1 ,3,5-triazin-2-yl)amino)-4-methoxyphenyl)acrylamide], the pIC50 in data set [1] was less than 5.00; in data set [3], 8.30; in data set [2], 8.49; in data set [4] it was 7.93; in the data set with A431 (wild-type EGFR) (setting [7]) it was 6.05. In data set [3], the “Ratio of IC50 value … of Test 3” value is listed as 176.6. In data set [2], the “Inhibitory selectivity of the compound, Ratio of IC50 value of Test 4 to IC50 value of Test 5” value is listed as more than 3125.00.
As to `C=CC(=O)Nc1cc(Nc2ncnc(-n3nc(C)c4ccc(F)cc43)n2)c(OC)cc1N(C)CCN(C)C` [Compound 20, N-(2-((2-(dimethylamino)ethyl)(methyl)amino)-5-((4-(6-fluoro-3-methyl-1H-indazol-1-yl)-1,3 ,5-triazin-2-yl)amino)-4-methoxyphenyl)acrylamide], the pIC50 in data set [1] is less than 5.00. In data set [2], the “Inhibitory selectivity of the compound, Ratio of IC50 value of Test 4 to IC50 value of Test 5” value is more than 1851.85 and the pIC50 was 8.27.
With `C=CC(=O)Nc1cc(Nc2nccc(-c3cn(C)c4ccccc34)n2)c(OC)cc1N(C)CCN(C)C` [Osimertinib (AZD9291), Osimertinib, reference compound], the pIC50 is 5.51 in data set [1]; […] in data set [3]; 8.15 in data set [2]; […] in the data set with A431 (wild-type EGFR) (A-431, 72 h). The fraction unbound at 4 h, 2 µM in data set [5] stood at 0.025; in data set [6] it was 0.005.

As usually defined, the pIC50 is the IC50 on a negative log10 scale, so that one unit is a factor of ten.
